Test results published in patent US7759331B2, “Pyridine-containing macroheterococylic compounds as kinase inhibitors” (Janssen Pharmaceutica NV, priority 2006, dated 2010).

Legend:
Experiment in all cases: Protein kinase selectivity panel
Type in all cases: biochemical
Conditions in all cases: 1.0 μM compound, 10 μM ATP
Abl(T315l)(h) = Abl(T315l)(h) (Homo sapiens, UniProt P00519, T315I)
Method in brief: (§1)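 Kinase, its appropriate substrate, and 10 μM ATP were combined with 1.0 μM compound. Phosphorylation was then allowed to proceed within the time-linear range and measured.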

SAPK3(h) = biological target: T1, SAPK3(h) (Homo sapiens, UniProt P53778)
T1 sequence (P53778 1-367): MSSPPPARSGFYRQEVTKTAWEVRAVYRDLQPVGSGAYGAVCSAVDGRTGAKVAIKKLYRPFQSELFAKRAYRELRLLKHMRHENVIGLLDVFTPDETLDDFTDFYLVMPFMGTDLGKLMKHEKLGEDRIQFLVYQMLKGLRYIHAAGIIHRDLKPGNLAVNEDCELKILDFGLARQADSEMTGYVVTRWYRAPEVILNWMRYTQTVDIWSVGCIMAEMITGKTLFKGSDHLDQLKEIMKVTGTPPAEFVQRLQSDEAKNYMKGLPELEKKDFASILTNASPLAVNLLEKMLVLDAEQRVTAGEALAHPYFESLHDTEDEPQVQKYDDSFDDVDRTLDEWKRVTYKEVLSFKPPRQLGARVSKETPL
Method in brief: as §1

MKK4(m) = biological target: T2, MKK4(m) (Mus musculus, UniProt P47809)
T2 sequence (P47809 1-397): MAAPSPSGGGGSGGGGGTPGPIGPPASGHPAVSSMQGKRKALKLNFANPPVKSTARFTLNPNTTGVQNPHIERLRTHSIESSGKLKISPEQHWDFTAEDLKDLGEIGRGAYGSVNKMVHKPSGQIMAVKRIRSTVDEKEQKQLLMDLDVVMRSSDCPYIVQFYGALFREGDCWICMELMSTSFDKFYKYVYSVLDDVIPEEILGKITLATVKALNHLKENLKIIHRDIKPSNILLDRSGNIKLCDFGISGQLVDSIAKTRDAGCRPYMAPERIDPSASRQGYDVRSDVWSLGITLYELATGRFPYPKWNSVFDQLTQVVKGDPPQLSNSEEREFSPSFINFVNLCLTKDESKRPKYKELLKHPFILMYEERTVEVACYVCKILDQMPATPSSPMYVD
Method in brief: as §1

Lyn(h) = Lyn(h) (Homo sapiens, UniProt P07948)
Method in brief: as §1

PKCα(h) = PKCα(h) (Homo sapiens, UniProt P17252)
Method in brief: as §1

CK2(h) = CK2(h) (Homo sapiens, UniProt P68400)
Method in brief: as §1

SGK(h) = biological target: T3, SGK(h) (Homo sapiens, UniProt O00141, S422D)
T3 sequence (O00141 60-431 S422D limits assumed): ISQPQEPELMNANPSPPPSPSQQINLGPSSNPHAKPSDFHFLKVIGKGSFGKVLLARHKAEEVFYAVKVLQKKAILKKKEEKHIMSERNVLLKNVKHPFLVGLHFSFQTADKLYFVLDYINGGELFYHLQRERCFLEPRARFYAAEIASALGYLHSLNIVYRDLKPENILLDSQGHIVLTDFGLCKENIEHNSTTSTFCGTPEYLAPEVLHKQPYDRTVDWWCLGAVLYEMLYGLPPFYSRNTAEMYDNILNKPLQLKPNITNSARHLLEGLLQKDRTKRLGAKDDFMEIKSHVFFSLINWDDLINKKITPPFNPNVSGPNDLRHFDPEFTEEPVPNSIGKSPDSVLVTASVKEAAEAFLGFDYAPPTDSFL
Method in brief: as §1

PKCη(h) = PKCη(h) (Homo sapiens, UniProt P24723)
Method in brief: as §1

PKCβII(h) = PKCβII(h) (Homo sapiens, UniProt P05771)
Method in brief: as §1

MKK7β(h) = biological target: T4, MKK7β(h) (Homo sapiens, UniProt O14733)
T4 sequence (O14733 1-419): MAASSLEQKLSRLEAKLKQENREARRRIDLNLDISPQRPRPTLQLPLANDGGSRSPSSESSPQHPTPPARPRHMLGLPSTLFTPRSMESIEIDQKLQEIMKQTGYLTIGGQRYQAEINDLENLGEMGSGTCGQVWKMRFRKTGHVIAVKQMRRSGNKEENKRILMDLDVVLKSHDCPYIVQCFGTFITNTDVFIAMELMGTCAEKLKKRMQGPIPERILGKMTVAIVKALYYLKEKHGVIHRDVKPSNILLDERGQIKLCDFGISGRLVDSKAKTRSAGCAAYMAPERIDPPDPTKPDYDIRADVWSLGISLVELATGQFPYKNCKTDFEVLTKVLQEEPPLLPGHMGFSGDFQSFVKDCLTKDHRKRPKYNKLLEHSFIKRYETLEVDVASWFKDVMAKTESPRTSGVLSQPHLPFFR
Method in brief: as §1

JNK3(h) = JNK3(h) (Homo sapiens, UniProt P53779)
Method in brief: as §1

Syk(h) = Syk(h) (Homo sapiens, UniProt P43405)
Method in brief: as §1

Sequence of JNK3(h) (P53779 whole entry): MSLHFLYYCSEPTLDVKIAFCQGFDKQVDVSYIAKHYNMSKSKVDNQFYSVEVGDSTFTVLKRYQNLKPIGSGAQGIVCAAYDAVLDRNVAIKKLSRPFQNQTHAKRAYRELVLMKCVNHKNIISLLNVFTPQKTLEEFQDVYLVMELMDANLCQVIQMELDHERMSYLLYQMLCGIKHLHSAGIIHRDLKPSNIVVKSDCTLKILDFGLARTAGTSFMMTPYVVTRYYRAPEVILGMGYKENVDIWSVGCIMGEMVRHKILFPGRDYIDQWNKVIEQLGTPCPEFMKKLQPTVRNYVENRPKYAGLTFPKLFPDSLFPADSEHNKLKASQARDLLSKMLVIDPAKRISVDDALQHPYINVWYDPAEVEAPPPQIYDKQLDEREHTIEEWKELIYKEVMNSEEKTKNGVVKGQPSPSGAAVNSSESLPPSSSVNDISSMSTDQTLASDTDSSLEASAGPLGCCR
Sequence of CK2(h) (P68400 whole entry): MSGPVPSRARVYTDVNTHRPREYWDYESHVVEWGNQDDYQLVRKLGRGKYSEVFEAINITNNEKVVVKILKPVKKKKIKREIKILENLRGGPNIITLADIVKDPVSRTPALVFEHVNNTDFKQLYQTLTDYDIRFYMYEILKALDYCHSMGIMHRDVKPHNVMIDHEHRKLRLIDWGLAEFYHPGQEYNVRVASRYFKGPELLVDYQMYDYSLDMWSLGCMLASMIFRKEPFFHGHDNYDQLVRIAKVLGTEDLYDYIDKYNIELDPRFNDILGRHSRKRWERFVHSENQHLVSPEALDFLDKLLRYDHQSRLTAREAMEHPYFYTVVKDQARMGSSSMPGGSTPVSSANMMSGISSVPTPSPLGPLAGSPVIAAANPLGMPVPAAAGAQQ
Sequence of CK2(h) (P67870 whole entry partner): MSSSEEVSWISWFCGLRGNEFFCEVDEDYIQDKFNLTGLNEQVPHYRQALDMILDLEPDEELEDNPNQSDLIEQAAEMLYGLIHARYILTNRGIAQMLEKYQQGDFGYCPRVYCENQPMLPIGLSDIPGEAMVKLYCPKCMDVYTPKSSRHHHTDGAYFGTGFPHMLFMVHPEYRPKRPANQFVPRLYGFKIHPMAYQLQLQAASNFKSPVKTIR
Sequence of PKCη(h) (P24723 whole entry): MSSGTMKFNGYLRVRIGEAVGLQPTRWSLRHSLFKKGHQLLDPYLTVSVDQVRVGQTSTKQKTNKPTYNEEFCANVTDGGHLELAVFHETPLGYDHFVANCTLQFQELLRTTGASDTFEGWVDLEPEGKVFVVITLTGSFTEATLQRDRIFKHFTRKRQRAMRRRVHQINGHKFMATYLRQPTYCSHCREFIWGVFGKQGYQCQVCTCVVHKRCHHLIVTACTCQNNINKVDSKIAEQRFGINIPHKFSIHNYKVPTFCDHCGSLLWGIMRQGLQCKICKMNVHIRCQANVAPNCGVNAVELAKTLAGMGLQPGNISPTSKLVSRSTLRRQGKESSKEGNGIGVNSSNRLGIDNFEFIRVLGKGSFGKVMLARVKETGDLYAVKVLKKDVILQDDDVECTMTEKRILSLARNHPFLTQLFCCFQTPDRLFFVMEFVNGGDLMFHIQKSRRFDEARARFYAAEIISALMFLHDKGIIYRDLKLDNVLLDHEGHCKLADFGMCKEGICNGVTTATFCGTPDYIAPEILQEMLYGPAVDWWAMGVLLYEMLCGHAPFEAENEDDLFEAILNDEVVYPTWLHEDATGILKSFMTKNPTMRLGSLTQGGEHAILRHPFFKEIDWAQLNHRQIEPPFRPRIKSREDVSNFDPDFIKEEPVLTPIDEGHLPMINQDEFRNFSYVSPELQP
Sequence of Lyn(h) (P07948 whole entry): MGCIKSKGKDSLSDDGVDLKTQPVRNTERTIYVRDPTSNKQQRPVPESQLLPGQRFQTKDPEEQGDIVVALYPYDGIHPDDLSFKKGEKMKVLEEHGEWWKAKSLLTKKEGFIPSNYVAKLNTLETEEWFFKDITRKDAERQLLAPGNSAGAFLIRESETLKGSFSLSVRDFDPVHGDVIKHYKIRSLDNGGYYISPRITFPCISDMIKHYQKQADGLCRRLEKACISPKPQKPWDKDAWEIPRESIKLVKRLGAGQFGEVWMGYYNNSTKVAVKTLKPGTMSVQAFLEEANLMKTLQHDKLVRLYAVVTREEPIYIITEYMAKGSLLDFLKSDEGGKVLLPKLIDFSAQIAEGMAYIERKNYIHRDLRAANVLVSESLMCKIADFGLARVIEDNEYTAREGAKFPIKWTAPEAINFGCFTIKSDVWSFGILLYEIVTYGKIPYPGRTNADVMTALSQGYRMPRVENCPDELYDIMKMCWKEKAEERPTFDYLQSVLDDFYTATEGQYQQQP
Sequence of PKCβII(h) (P05771 1-673 isoform P05771-2): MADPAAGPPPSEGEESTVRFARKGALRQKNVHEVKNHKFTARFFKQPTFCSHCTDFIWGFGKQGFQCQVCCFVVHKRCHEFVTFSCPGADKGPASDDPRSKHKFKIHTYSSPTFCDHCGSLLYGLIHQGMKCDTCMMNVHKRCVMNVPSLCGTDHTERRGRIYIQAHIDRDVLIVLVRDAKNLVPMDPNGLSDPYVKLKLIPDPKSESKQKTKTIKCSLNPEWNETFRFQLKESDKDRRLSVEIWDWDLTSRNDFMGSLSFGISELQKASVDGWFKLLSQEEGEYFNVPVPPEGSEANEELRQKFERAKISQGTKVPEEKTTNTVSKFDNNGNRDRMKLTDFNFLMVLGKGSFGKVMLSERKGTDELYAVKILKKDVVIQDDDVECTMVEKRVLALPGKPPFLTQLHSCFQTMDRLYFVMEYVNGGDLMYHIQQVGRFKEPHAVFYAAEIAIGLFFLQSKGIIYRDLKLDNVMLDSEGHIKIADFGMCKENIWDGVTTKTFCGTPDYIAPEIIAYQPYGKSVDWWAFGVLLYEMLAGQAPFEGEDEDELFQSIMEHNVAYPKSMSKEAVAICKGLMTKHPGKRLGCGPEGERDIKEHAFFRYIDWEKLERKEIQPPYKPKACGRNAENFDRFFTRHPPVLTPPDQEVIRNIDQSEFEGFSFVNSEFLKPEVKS

Activity at Protein Kinase Assays (% of control), Abl(T315l)(h) (Abl(T315l)(h))	Activity at Protein Kinase Assays (% of control), SAPK3(h) (SAPK3(h))	Activity at Protein Kinase Assays (% of control), MKK4(m) (MKK4(m))	Activity at Protein Kinase Assays (% of control), Lyn(h) (Lyn(h))	Activity at Protein Kinase Assays (% of control), PKCα(h) (PKCα(h))	Activity at Protein Kinase Assays (% of control), CK2(h) (CK2(h))	Activity at Protein Kinase Assays (% of control), SGK(h) (SGK(h))	Activity at Protein Kinase Assays (% of control), PKCη(h) (PKCη(h))	Activity at Protein Kinase Assays (% of control), PKCβII(h) (PKCβII(h))	Activity at Protein Kinase Assays (% of control), MKK7β(h) (MKK7β(h))	Activity at Protein Kinase Assays (% of control), JNK3(h) (JNK3(h))	Activity at Protein Kinase Assays (% of control), Syk(h) (Syk(h))	Compound
77 % of control	103 % of control	119 % of control	87 % of control	82 % of control	108 % of control	109 % of control	102 % of control	74 % of control	97 % of control	103 % of control	105 % of control	O=C1NC(=O)C2=C1c1cn(c3ccccc13)CCCc1cc(nc(N3CCCC3)c1)CCCn1cc2c2ccccc21 [Cpd 6, 20-pyrrolidin-1-yl-4,14,19,26-tetraazaheptacyclo[24.6.1.1^7,14.1^18,22.0^2,6.0^8,13.0^27,32]pentatriaconta-1(33),2(6),7(35),8,10,12,18(34),19,21,27,29,31-dodecaene-3,5-dione]
103 % of control	114 % of control	113 % of control	78 % of control	83 % of control	113 % of control	93 % of control	97 % of control	77 % of control	85 % of control	102 % of control	109 % of control	O=C1NC(=O)C2=C1c1cn(c3ccccc13)CCCc1ccc(c(N3CCCC3)n1)CCCn1cc2c2ccccc21 [Cpd 7, 31-pyrrolidin-1-yl-5,15,25,30-tetraazaheptacyclo[27.2.2.1^5,12.1^18,25.0^6,11.0^13,17.0^19,24]pentatriaconta-1(31),6,8,10,12(35),13(17),18(34),19,21,23,29,32-dodecaene-14,16-dione]
79 % of control	115 % of control	119 % of control	76 % of control	74 % of control	111 % of control	105 % of control	109 % of control	68 % of control	78 % of control	107 % of control	101 % of control	CN(C)c1cc2cc(n1)CCCn1cc(c3ccccc31)C1=C(C(=O)NC1=O)c1cn(c3ccccc13)CCC2 [Cpd 2, 20-(dimethylamino)-4,14,19,26-tetraazaheptacyclo[24.6.1.1^7,14.1^18,22.0^2,6.0^8,13.0^27,32]pentatriaconta-1(33),2(6),7(35),8,10,12,18(34),19,21,27,29,31-dodecaene-3,5-dione]
100 % of control	78 % of control	130 % of control	107 % of control	68 % of control	107 % of control	93 % of control	85 % of control	64 % of control	88 % of control	96 % of control	86 % of control	CN(C)c1nc2ccc1CCCCn1cc(c3ccccc31)C1=C(C(=O)NC1=O)c1cn(c3ccccc13)CCC2 [Cpd 1, 31-(dimethylamino)-5,15,25,32-tetraazaheptacyclo[28.2.2.1^5,12.1^18,25.0^6,11.0^13,17.0^19,24]hexatriaconta-1(32),6,8,10,12(36),13(17),18(35),19,21,23,30,33-dodecaene-14,16-dione]
